pEC50, pKi: −log10 of the molar value. Read-outs that look alike come from different tables or passages of the source.
Key:
[1] = target: human CB2 receptors (Homo sapiens (Human), UniProt P34972); experiment: human CB2 radioligand binding assay ([3H]CP 55,940 competition)
Description: (§1) The CB1 and CB2 radioligand binding assays described herein are utilized to ascertain the affinity of compounds of the present application for binding to CB2 relative to CB1 receptors.
HEK293 cells stably expressing human CB2 receptors were grown until a confluent monolayer was formed. Briefly, the cells were harvested and homogenized in TE buffer (50 mM Tris-HCl, 1 mM MgCl2, and 1 mM EDTA) using a polytron for 2×10 second bursts in the presence of protease inhibitors, followed by centrifugation at 45,000×g for 20 minutes. The final membrane pellet was re-homogenized in storage buffer (50 mM Tris-HCl, 1 mM MgCl2, and 1 mM EDTA and 10% sucrose) and frozen at −78° C. until used. Saturation binding reactions were initiated by the addition of membrane preparation (protein concentration of 5 μg/well for human CB2) into wells of a deep well plate containing [^3H]CP 55,940 (120 Ci/mmol, a nonselective CB agonist commercially available from Tocris) in assay buffer (50 mM Tris, 2.5 mM EDTA, 5 mM MgCl2, and 0.5 mg/mL fatty acid free BSA, pH 7.4). After 90 min incubation at 30° C., binding reaction was terminated by the addition of 300 μL/well of cold assay buffer followed by rapid vacuum filtration through a UniFilter-96 GF/C filter plates (pre-soaked in 1 mg/mL BSA for 2 hours). The bound activity was counted in a TopCount using Microscint-20. Saturation experiments were conducted with twelve concentrations of [^3H]CP 55,940 ranging from 0.01 to 8 nM. Competition experiments were conducted with 0.5 nM [^3H]CP 55,940 and five concentrations (0.01 nM to 10 μM) of displacing ligands. The addition of 10 μM unlabeled CP 55,940 (Tocris, Ellisville, Mo.) was used to assess nonspecific binding.

[2] = target: rat CB2 receptors (Rattus norvegicus (Rat), UniProt Q9QZN9); experiment: rat CB2 radioligand binding assay ([3H]CP 55,940 competition); conditions: HEK293 membranes, 0.5 nM [3H]CP 55,940
Description: as §1
HEK293 cells stably expressing rat CB2 receptors were grown until a confluent monolayer was formed. Briefly, the cells were harvested and homogenized in TE buffer (50 mM Tris-HCl, 1 mM MgCl2, and 1 mM EDTA) using a polytron for 2×10 second bursts in the presence of protease inhibitors, followed by centrifugation at 45,000×g for 20 minutes. The final membrane pellet was re-homogenized in storage buffer (50 mM Tris-HCl, 1 mM MgCl2, and 1 mM EDTA and 10% sucrose) and frozen at −78° C. until used. Saturation binding reactions were initiated by the addition of membrane preparation (protein concentration of 20 μg/well for rat CB2) into wells of a deep well plate containing [^3H]CP 55,940 (120 Ci/mmol, a nonselective CB agonist commercially available from Tocris) in assay buffer (50 mM Tris, 2.5 mM EDTA, 5 mM MgCl2, and 0.5 mg/mL fatty acid free BSA, pH 7.4). After 45 min incubation at 30° C., binding reaction was terminated by the addition of 300 μl/well of cold assay buffer followed by rapid vacuum filtration through a UniFilter-96 GF/C filter plates (pre-soaked in 1 mg/mL BSA for 2 hours). The bound activity was counted in a TopCount using Microscint-20. Saturation experiments were conducted with twelve concentrations of [^3H]CP 55,940 ranging from 0.01 to 8 nM. Competition experiments were conducted with 0.5 nM [^3H]CP 55,940 and five concentrations of displacing ligands selected from the range of 0.01 nM to 10 μM. The addition of 10 μM unlabeled CP 55,940 (Tocris, Ellisville, Mo.) was used to assess nonspecific binding.

[3] = target: rat CB1 receptors (HEK cells) (Rattus norvegicus (Rat), UniProt P20272); experiment: rat CB1 cyclase functional assay (HitHunter cAMP); format: cell-based
Sequence of rat CB1 receptors (HEK cells) (P20272 whole entry): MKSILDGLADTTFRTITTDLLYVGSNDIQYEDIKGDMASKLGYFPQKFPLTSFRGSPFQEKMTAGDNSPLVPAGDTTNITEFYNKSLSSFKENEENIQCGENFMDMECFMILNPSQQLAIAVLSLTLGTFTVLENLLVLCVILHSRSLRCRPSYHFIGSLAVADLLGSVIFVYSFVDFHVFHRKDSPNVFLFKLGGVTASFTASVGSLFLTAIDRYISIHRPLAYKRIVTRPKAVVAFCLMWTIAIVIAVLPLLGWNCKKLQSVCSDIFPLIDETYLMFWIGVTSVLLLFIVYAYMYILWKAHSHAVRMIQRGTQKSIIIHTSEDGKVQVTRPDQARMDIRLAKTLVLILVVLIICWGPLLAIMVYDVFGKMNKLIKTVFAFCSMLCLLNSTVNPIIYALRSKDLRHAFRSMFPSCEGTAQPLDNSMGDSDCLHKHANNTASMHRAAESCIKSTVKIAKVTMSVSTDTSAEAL
Description: The cyclase functional assays were performed using the HitHunter™ cAMP assay kit from DiscoveRx (Fremont, Calif.) according to vendor's protocol. Briefly, HEK cells expressing CB2 or CB1 receptors (rat or human) were detached using cell dissociation buffer (Invitrogen, Carlsbad, Calif.), dispersed and placed in suspension at 10,000 cells per well in 96 well plates prior to the assay. Cell suspensions were incubated at 37° C. for 20 min with variable concentrations of test ligands and or 10 μM CP 55,940-positive control in the presence of a fixed concentration of forskolin (18 μM for rat CB2 and 37 μM for rat CB1) in Dulbescco's phosphate-buffered saline (Invitrogen, Carlsbad, Calif.) supplemented with bovine serum albumin (0.01% final concentration). The reactions were terminated by the addition of lysis buffer and the luminescence was detected following the procedure according to the manufacturer's instructions. EC50 values were calculated using sigmoidal dose-response curve fitting from Prism (GraphPad).

[4] = HEK293 membranes, 0.5 nM [3H]CP 55,940, read-out: human CB2 (Ki)

Sequence of human CB2 receptors (P34972 whole entry): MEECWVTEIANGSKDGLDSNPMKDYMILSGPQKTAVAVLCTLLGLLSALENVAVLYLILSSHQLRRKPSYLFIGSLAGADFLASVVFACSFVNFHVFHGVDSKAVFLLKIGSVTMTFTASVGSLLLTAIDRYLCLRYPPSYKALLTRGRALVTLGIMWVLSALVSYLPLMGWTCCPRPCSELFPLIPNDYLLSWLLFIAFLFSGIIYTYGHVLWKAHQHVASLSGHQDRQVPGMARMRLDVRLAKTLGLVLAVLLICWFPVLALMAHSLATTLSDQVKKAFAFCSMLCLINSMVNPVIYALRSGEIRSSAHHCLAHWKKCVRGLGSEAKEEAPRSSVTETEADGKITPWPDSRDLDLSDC

CC(C)(C)/C(COc1ccc(C(F)(F)F)cc1C(=O)/N=c1\sc(C(C)(C)C)cn1C[C@H]1CCCO1)=N/O [Example 70, N-[(2Z)-5-tert-butyl-3-[(2R)-tetrahydrofuran-2-ylmethyl]-1,3-thiazol-2(3H)-ylidene]-2-{[(2Z)-2-(hydroxyimino)-3,3-dimethylbutyl]oxy}-5-(trifluoromethyl)benzamide]
pKi [1, 4]: 7.92
pKi [2]: 8.09
pEC50 [3]: < 4.57

CC(C)(C)c1cn(C[C@H]2CCCO2)/c(=N/C(=O)c2cc(C(F)(F)F)ccc2OCC(C)(C)n2cccc2)s1 [Example 74, N-[(2Z)-5-tert-butyl-3-[(2R)-tetrahydrofuran-2-ylmethyl]-1,3-thiazol-2(3H)-ylidene]-2-[2-methyl-2-(1H-pyrrol-1-yl)propoxy]-5-(trifluoromethyl)benzamide]
pKi [1, 4]: 7.47
pKi [2]: 8.18

CCN(CC)Oc1ccc(C(F)(F)F)cc1C(=O)/N=c1\sc(C(C)(C)C)cn1C[C@H]1CCCO1 [Example 78, N-[(2Z)-5-tert-butyl-3-[(2R)-tetrahydrofuran-2-ylmethyl]-1,3-thiazol-2(3H)-ylidene]-2-[(diethylamino)oxy]-5-(trifluoromethyl)benzamide]
pKi [1, 4]: 7.66
pKi [2]: 8.34

CN1CCC[C@H]1CNc1ccc(C(F)(F)F)cc1C(=O)/N=c1\sc(C(C)(C)C)cn1C[C@H]1CCCO1 [Example 55, N-[(2Z)-5-tert-butyl-3-[(2R)-tetrahydrofuran-2-ylmethyl]-1,3-thiazol-2(3H)-ylidene]-2-({[(2S)-1-methylpyrrolidin-2-yl]methyl}amino)-5-(trifluoromethyl)benzamide]
pKi [1, 4]: 7.44
pKi [2]: 8.09

CC(C)(C)C(=O)COc1ccc(C(F)(F)F)cc1C(=O)/N=c1\sc(C(C)(C)C)cn1C[C@H]1CCCO1 [Example 72, N-[(2Z)-5-tert-butyl-3-[(2R)-tetrahydrofuran-2-ylmethyl]-1,3-thiazol-2(3H)-ylidene]-2-(3,3-dimethyl-2-oxobutoxy)-5-(trifluoromethyl)benzamide]
pKi [1, 4]: 9.05
pKi [2]: 9.52
pEC50 [3]: < 4.57

CC(C)(C)c1cn(C[C@H]2CCCO2)/c(=N/C(=O)c2cc(C(F)(F)F)ccc2ON=C2CCCC2)s1 [Example 83, N-[(2Z)-5-tert-butyl-3-(2R)-(tetrahydrofuran-2-ylmethyl)-1,3-thiazol-2(3H)-ylidene]-2-[(cyclopentylideneamino)oxy]-5-(trifluoromethyl)benzamide]
pKi [1]: 9.30
pKi [2]: 8.92

CC(=O)N1CCC[C@H]1COc1ccc(C(F)(F)F)cc1C(=O)/N=c1\sc(C(C)(C)C)cn1C[C@H]1CCCO1 [Example 47, 2-{[(2S)-1-acetylpyrrolidin-2-yl]methoxy}-N-[(2Z)-5-tert-but 1-3[(2R)-tetrahydrofuran-2-ylmethyl]-1,3-thiazol-2(3H)-ylidene]-5-(trifluoromethyl)benzamide]
pKi [1, 4]: 6.97
pKi [2]: 7.62

CC(=O)NOc1ccc(C(F)(F)F)cc1C(=O)/N=c1\sc(C(C)(C)C)cn1C[C@H]1CCCO1 [Example 75, 2-[(acetylamino)oxy]-N-[(2Z)-5-tert-butyl-3-[(2R)-tetrahydrofuran-2-ylmethyl]-1,3-thiazol-2(3H)-ylidene]-5-(trifluoromethyl)benzamide]
pKi [1, 4]: 8.92
pKi [2]: 8.60

C[C@@H](O)COc1ccc(C(F)(F)F)cc1C(=O)/N=c1\sc(C(C)(C)C)cn1C[C@H]1CCCO1 [Example 81, N-[(2Z)-5-tert-butyl-3-[(2R)-tetrahydrofuran-2-ylmethyl]-1,3-thiazol-2(3H)-ylidene]-2-{[(2R)-2-hydroxypropyl]oxy}-5-(trifluoromethyl)benzamide]
pKi [1, 4]: 8.96
pKi [2]: 9.30

CC(COc1ccc(C(F)(F)F)cc1C(=O)/N=c1\sc(C(C)(C)C)cn1C[C@H]1CCCO1)=NO [Example 73, N-[(2Z)-5-tert-butyl-3-[(2R)-tetrahydrofuran-2-ylmethyl]-1,3-thiazol-2(3H)-ylidene]-2-{[2-(hydroxyimino)propyl]oxy}-5-(trifluoromethyl)benzamide]
pKi [1, 4]: 8.74
pKi [2]: 9.30
pEC50 ([3]; HEK cells, forskolin 37 μM, read-out: rCB1 cyclase (EC50)): 5.63

CN1CCC[C@H]1COc1ccc(C(F)(F)F)cc1C(=O)/N=c1\scc(C(C)(C)C)n1C[C@H]1CCCO1 [Example 57, N-[(2Z)-4-tert-butyl-3-[(2R)-tetrahydrofuran-2-ylmethyl]-1,3-thiazol-2(3H)-ylidene]-2-{[(2S)-1-methylpyrrolidin-2-yl]methoxy}-5-(trifluoromethyl)benzamide]
pKi [1, 4]: 6.54
pKi [2]: 7.82

CC(COc1ccc(C(F)(F)F)cc1C(=O)/N=c1\sc(C(C)(C)C)cn1C[C@H]1CCCO1)=NOC(C)(C)C [Example 82]
pKi [1, 4]: 8.31
pKi [2]: 8.77

CC(=O)C(C)=NOc1ccc(C(F)(F)F)cc1C(=O)/N=c1\sc(C(C)(C)C)cn1C[C@H]1CCCO1 [Example 84, N-[(2Z)-5-tert-butyl-3-[(2R)-tetrahydrofuran-2-ylmethyl]-1,3-thiazol-2(3H)-ylidene]-2-({[1-methyl-2-oxopropylidene]amino}oxy)-5-(trifluoromethyl)benzamide]
pKi [1, 4]: 8.48
pKi [2]: 8.62

CC(CN1CCC[C@H]1COc1ccc(C(F)(F)F)cc1C(=O)/N=c1\sc(C(C)(C)C)cn1C[C@H]1CCCO1)=NO [Example 77, N-[(2Z)-5-tert-butyl-3-[(2R)-tetrahydrofuran-2-ylmethyl]-1,3-thiazol-2(3H)-ylidene]-2-({(2S)-1-[2-(hydroxyimino)propyl]pyrrolidin-2-yl}methoxy)-5-(trifluoromethyl)benzamide]
pKi [1, 4]: 7.07
pKi [2]: 7.19

CC(C)NOc1ccc(C(F)(F)F)cc1C(=O)/N=c1\sc(C(C)(C)C)cn1C[C@H]1CCCO1 [Example 79, N-[(2Z)-5-tert-butyl-3-[(2R)-tetrahydrofuran-2-ylmethyl]-1,3-thiazol-2(3H)-ylidene]-2-[(isopropylamino)oxy]-5-(trifluoromethyl)benzamide]
pKi [1, 4]: 9.52
pKi [2]: 9.30

CC(C)(C)OC(=O)NNc1ccc(C(F)(F)F)cc1C(=O)/N=c1\sc(C(C)(C)C)cn1C[C@H]1CCCO1 [Example 40, tert-butyl 2-[2-({[(2Z)-5-tert-butyl-3-[(2R)-tetrahydrofuran-2-ylmethyl]-1,3-thiazol-2(3H)-ylidene]amino}carbonyl)-4-(trifluoromethyl)phenyl]hydrazinecarboxylate]
pKi [1]: 9.40
pKi [2]: 9.52

COCCn1cc(C(C)(C)C)s/c1=N\C(=O)c1cc(C(F)(F)F)ccc1ONC(C)(C)C [Example 76, 2-[(tert-butylamino)oxy]-N-[(2Z)-5-tert-butyl-3-(2-methoxyethyl)-1,3-thiazol-2(3H)-ylidene]-5-(trifluoromethyl)benzamide]
pKi [1]: 7.70
pKi [2]: 8.28
